Values of other authors in patent US4127530A, “Novel heneicosapeptides, intermediates therefor and pharmaceutical compositions and methods employing said heneicosapeptides” (priority 1977, dated 1978).

Experiments:
[1] = injected directly into the brain of the rat
[2] = tested on: partially purified brain opiate receptor sites; conditions: for opioid activity in binding to partially purified brain opiate receptor sites: fragments isolated from the pituitary

H-Tyr-Gly-Gly-Phe-Met-OH [methionine enkephalin]
analgesic activity [1]: weak analgesic agent of short duration | binding to partially purified brain opiate receptor sites ([2]; natural peptide): binds stereo-specifically

α-endorphin
opioid activity in binding to partially purified brain opiate receptor sites [2]: potent opioid activity

β-endorphin: β-lipotropin fragment 61-91
opioid activity in binding to partially purified brain opiate receptor sites [2]: potent opioid activity

γ-endorphin
opioid activity in binding to partially purified brain opiate receptor sites [2]: potent opioid activity
